Molecules are shown by their SMILES.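 Cultured in 96-well plates, cells were exposed to test compound for 48 hours across five concentrations. GI50 = concentration required for 50% inhibition of growth. TGI denotes the concentration required for complete inhibition of growth.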

Assay in all cases: NCI tumour cell line growth inhibition, 48 h
In assay [1] the test system is LOX IMVI melanoma.
In assay [2] the test system is SW-620 colon.
Assay [3] has as its system RXF 393 renal.
Assay [4] deals with COLO 205 colon.
Assay [5] deals with SF-539 CNS.
Assay [6] has as its system SK-MEL-28 melanoma.
The test system of assay [7] is M14 melanoma.
Assay [8] concerns UACC-257 melanoma.
In assay [9] the test system is MDA-MB-231 breast.
Assay [10] has as its system RPMI-8226 leukemia.

With `NCC1(N2CCOCC2)C2CCCC21CNc1ccccc1` (stereo not drawn), the TGI in assay [1], in assay [2], in [3], in [4], in [5] and in assay [6] was over 100 µM each time. In addition, the TGI in assay [7] and in [8] was over 100 µM each time.

Turning to `COc1cc2c(cc1O)C1CC(CC3CCCCN31)OC(=O)/C=C\c1ccc(O)c-2c1` (stereo not drawn), the TGI is 32.3 µM in assay [1]; over 100 µM in assay [2]; 83.1 µM in assay [4]; 64.8 µM in assay [9]; 89.8 µM in assay [10]; 34.6 µM in assay [5]. Also, the results for the TGI in assay [6], in [7] and in assay [8] were 85.2 µM, 46.6 µM and 39.7 µM, respectively.

`N=C1C(c2nc3ccccc3s2)=C(O)CN1c1cc(Cl)cc(Cl)c1`: the GI50 in assay [1] was over 100 µM; in assay [2], over 100 µM; in assay [4] it was over 100 µM; in [9], 23.6 µM; in [10] it was over 100 µM; in assay [5], 34.3 µM. Besides, the GI50 is over 100 µM in assay [6] and 40.2 µM in assay [8]. Further, the TGI in [1], in [2], in assay [4], in [9], in assay [10] and in assay [5] was over 100 µM throughout. The TGI in assay [6] and in assay [8] was over 100 µM throughout.

Regarding `Cc1[nH]n(-c2cccc(Cl)c2)c(=O)c1/C=C1\C=c2ccccc2=CC1=O`, the GI50 in [1] was over 100 µM; in [2], over 100 µM; in [4], over 100 µM; in [9], 36.1 µM; in assay [10], over 100 µM; in [7], over 100 µM. In assay [8], the GI50 was over 100 µM. Also, the TGI in [1], in assay [2], in assay [4], in assay [9], in [10] and in assay [5] was over 100 µM in each case. The TGI in assay [7] and in [8] was over 100 µM in each case.

With `CC1CC(c2ccc(Cl)c(Cl)c2)=Nc2ccccc2S1` (stereo not drawn), the TGI in assay [1], in assay [2], in assay [3], in [4], in assay [10] and in [5] was over 100 µM each time. Further, the TGI in [6], in [7] and in [8] was over 100 µM throughout.

In the case of `CN1CCc2cc3c4cc2C1Cc1ccc(cc1)Oc1cc(ccc1O)CC1c2c(cc(O)c(c2O4)O3)CCN1C` (stereo not drawn), the TGI worked out at 3.23 µM in [1]; 7.46 µM in [2]; 13.2 µM in assay [3]; 21.9 µM in [4]; 4.02 µM in assay [10]; 3.21 µM in assay [5]. Moreover, the TGI in [6] worked out at 3.33 µM; in [7] it was 3.26 µM; in assay [8], 4.04 µM.

For `COC(=O)C1=C(\O)C[C@@]2(C)CC[C@@H](C(=O)OC)C2C/C=C\1C(=O)OC` (stereo partly drawn), the TGI in assay [1] was over 100 µM; in assay [2], over 100 µM; in assay [3], over 100 µM; in [4] it was over 100 µM; in [10], over 100 µM; in [5], 38.8 µM. Besides, the TGI in [6], in assay [7] and in assay [8] was over 100 µM in each case.

Turning to `COC(CC1(OC)OC(=O)C=C1N)OC` (stereo not drawn), the TGI in assay [1], in assay [2], in [4], in assay [10], in [5] and in [6] was over 100 µM each time. The TGI in assay [7] and in assay [8] was over 100 µM in each case.

For `COC(=O)NC(=O)c1cn(C2CCCCC2)c(=O)[nH]c1=O`, the TGI in assay [1], in assay [2], in [3], in assay [4], in assay [10] and in [5] was over 100 µM in each case. Further, the TGI in [6], in [7] and in assay [8] was over 100 µM each time.

`NC(=O)c1cc([N+](=O)[O-])cc([N+](=O)[O-])c1`: the TGI in assay [1], in [2], in assay [3], in assay [4], in assay [10] and in assay [5] was over 100 µM in each case. The TGI in [6], in assay [7] and in [8] was over 100 µM each time.

On to `O=C(NC1C(=O)NNC1c1ccccc1Cl)c1ccccc1` (stereo not drawn), for which the TGI in assay [1], in assay [2], in assay [3], in assay [4], in [10] and in assay [5] was over 100 µM throughout. Moreover, the TGI in assay [6], in assay [7] and in [8] was over 100 µM in each case.

As for `O=C1c2ccccc2C(=O)c2c1ccc1c2N=C(c2ccc(Br)cc2)CC(c2cccc3ccccc23)N1` (stereo not drawn), the TGI in assay [1], in assay [2], in [3], in assay [4], in [10] and in [5] was over 100 µM throughout. Also, the TGI in assay [6], in [7] and in assay [8] was over 100 µM throughout.

Take `Cn1cnc([N+](=O)[O-])c1Sc1nc2ccc([N+](=O)[O-])cc2[nH]1`: the TGI was 60.1 µM in assay [1]; over 100 µM in assay [2]; 40.1 µM in assay [3]; 23.4 µM in [4]; 67.5 µM in assay [10]; 44 µM in assay [5]. For the same compound, the TGI in assay [6] was 37.6 µM; in assay [7] it was over 100 µM; in assay [8], 33.5 µM.

In the case of `CCCCCCCCCCCC(=O)OC(COC(N)=O)COc1ccc(Cl)cc1` (stereo not drawn), the TGI in [1] amounted to 55 µM; in [2] it was 63 µM; in [3], 43.9 µM; in [4], 37.5 µM; in assay [10], 47 µM; in assay [5], 66.4 µM. The TGI in [6] was determined as 36.2 µM; in assay [7], 35 µM; in assay [8] it was 51 µM.

With `Cc1cc2c(cc1Cl)N1C(=O)NS(=O)(=O)N=C1NS2(=O)=O`, the GI50 in assay [1], in assay [2], in [4], in [9], in assay [10] and in assay [5] was over 100 µM in each case. Further, the GI50 in assay [6], in [7] and in assay [8] was over 100 µM in each case. Also, the TGI in [1], in assay [2], in assay [4], in assay [9], in assay [10] and in [5] was over 100 µM each time. Further, the TGI in assay [6], in assay [7] and in assay [8] was over 100 µM throughout.

On to `COc1ccc2c(c1)N(CCO)C1=C(C(=O)OC1)C2c1ccc(OC)c(OC)c1` (stereo not drawn), for which the GI50 is 4.89 µM in [1]; 3.21 µM in assay [2]; 2.53 µM in [4]; 3.63 µM in assay [9]; 3.78 µM in assay [10]; 3.33 µM in [6]. In addition, the values for the GI50 in assay [7] and in [8] were 2.44 µM and 3.38 µM, respectively. The TGI in assay [1] is over 100 µM; in assay [2], over 100 µM; in assay [4], 5.93 µM; in [9] it was 10.7 µM; in assay [10] it was over 100 µM; in assay [6] it was over 100 µM. The TGI in [7] and in assay [8] was over 100 µM in each case.

Take `COc1ccc2c(c1)C(=O)c1c-2c(N2CCN(C(=O)CCNCCNCCO)CC2)nc2ccccc12`: the GI50 in [1] was 12.3 µM; in [2], 2.26 µM; in assay [4], 12.4 µM; in assay [9], 13.5 µM; in assay [10] it was 11.3 µM; in assay [5] it was 14.5 µM. Moreover, the GI50 is 9.22 µM in assay [6], 11.8 µM in assay [7] and 20.8 µM in assay [8]. Moreover, the TGI in assay [1] turned out to be 31.6 µM; in assay [2], 5.17 µM; in assay [4] it was 29.8 µM; in assay [9] it was 30.9 µM; in assay [10] it was 33.2 µM; in assay [5] it was 29.9 µM. Further, the results for the TGI in [6], in assay [7] and in [8] were 23.4 µM, 24.1 µM and 42.1 µM, respectively.

Regarding `NC(=O)c1ncn(Cc2ccccc2)c1CNC(N)=S`, the TGI in [1], in assay [2], in [3], in assay [4], in assay [10] and in [5] was over 100 µM in each case. In addition, the TGI in assay [6] and in assay [7] was over 100 µM each time.

Take `O=C1CC[C@@H](NC(=O)Cc2ccccc2)C(=O)N1`: the TGI in [1], in assay [2], in assay [4], in assay [10], in assay [5] and in [6] was over 100 µM each time. For the same compound, the TGI in assay [7] and in assay [8] was over 100 µM in each case.

For the compound `COc1cc(NC(C)CCCN2C(=O)c3ccccc3C2=O)c2ncccc2c1OC` (stereo not drawn), the GI50 in [1] is 28.2 µM; in [2] it was 35.3 µM; in assay [4] it was 31.9 µM; in assay [9] it was 31.8 µM; in assay [5] it was 78 µM; in assay [6] it was 37.8 µM. Further, the figures for the GI50 in assay [7] and in assay [8] were 30.5 µM and 40.6 µM, respectively. Moreover, the TGI in [1], in assay [2], in [4], in assay [9], in [5] and in assay [6] was over 100 µM throughout. Moreover, the TGI in assay [7] and in assay [8] was over 100 µM each time.

As for `CCCCC(C(=O)CCC(=O)Nc1ccc(Cl)cc1)C(=O)C(C)C` (stereo not drawn), the TGI in [1], in assay [2], in assay [3], in assay [4], in [10] and in [5] was over 100 µM in each case. In addition, the TGI in [6], in assay [7] and in assay [8] was over 100 µM throughout.

Consider `O=C(/C=C/c1ccc(O)cc1)c1cc(Cl)ccc1O`, for which the TGI in assay [1] was 56.2 µM; in [2] it was over 100 µM; in assay [3], 88.9 µM; in [4], over 100 µM; in assay [5], 44.9 µM; in assay [6], over 100 µM. Further, the TGI in assay [7] and in [8] was over 100 µM in each case.

Consider `ClCCCCOC1CCCCO1` (stereo not drawn), for which the TGI in assay [2], in [3], in assay [4], in [5], in assay [6] and in assay [7] was over 100 µM in each case. In addition, the TGI in [8] was over 100 µM.

Turning to `Cc1ccc(NC(=O)C(=O)CC(=O)c2ccccc2)cc1C`, the TGI in assay [1], in assay [2], in assay [3], in [4], in [10] and in [5] was over 100 µM each time. Besides, the TGI in assay [6], in [7] and in [8] was over 100 µM each time.

Consider `c1ccc2c(c1)N=C(c1ccc3ccccc3c1)CC(c1cccc3ccccc13)S2` (stereo not drawn), for which the TGI in assay [1] is over 100 µM; in assay [2], over 100 µM; in assay [3], over 100 µM; in assay [4], over 100 µM; in assay [10], 52.5 µM; in assay [5], over 100 µM. Besides, the TGI in [6], in assay [7] and in assay [8] was over 100 µM throughout.

For the origin of these results see PubChem BioAssay (NCI).
